Literature values, collected in patent US20060094833A1, “Shock resistant cyanoacrylate compositions” (LOCTITE (R&D) LIMITED, priority 2004, published 2006).

Details: for pKa 1: first acid group; for pKa 4: fourth; for pKa 2: second acid group; for pKa 3: third acid group

Compound | pKa 1 | pKa 4 | pKa 2 | pKa 3
O=C(O)CC(C(=O)O)C(CC(=O)O)C(=O)O (centres unmarked) [1,2,3,4-Butane tetracarboxylic acid] | 3.25 | 6.54 | 4.51 | 5.02
O.O=C(O)c1cccc(C(=O)O)c1C(=O)O [1,2,3-Benzene tricarboxylic acid hydrate] | 2.52 | – | 4.00 | 6.12
O=C(O)CC(CC(=O)O)C(=O)O [1,2,3-Propane tricarboxylic acid] | 4.31 | – | 4.82 | 5.21
O=C(O)C=C(CC(=O)O)C(=O)O [1,2,3-Propene tricarboxylic acid] | 2.97 | – | 4.34 | 4.99
O=C(O)c1cc(C(=O)O)c(C(=O)O)cc1C(=O)O [1,2,4,5-Benzene tetracarboxylic acid] | – | 5.80 | 2.71 | 4.97
O=C(O)c1ccc(C(=O)O)c(C(=O)O)c1 [1,2,4-Benzene tricarboxylic acid] | – | – | 3.83 | –
O=C(O)c1ccc2c(c1)C(=O)OC2=O [1,2,4-Benzene tricarboxylic anhydride] | 3.33 | – | – | –
O=C(O)CC(O)(CC(=O)O)C(=O)O [Citric acid] | 2.93 | 16.13 | 4.23 | 5.09
CC(=O)C(=O)O [Pyruvic acid] | 2.65 | – | – | –
